“Also recorded” adds a separate entry of the source.

The test system of series [1] is Ptpn11^D61G/+ X WT breeder. As to the kind of experiment: Progeny from prenatal dasatinib treated Ptpn11D61G/+ X WT breeder. As to the method:
(§1) Vehicle-injected mice served as control.
Dasatinib was administered into pregnant mothers and amelioration of cardiac defects in NS mice was assessed. Dasatinib was administered at 0.1, 0.5 or 1.0 mg/kg daily interperitoneally into wild type pregnant mice intercrossed with NS mice, beginning at embryonic day 7 until postnatal day 9 (in nursing females). After postnatal day 10 (P10), dasatinib injections resumed directly into individual pups daily until 8-weeks (P56) after birth (FIG. 14a).

Series [2] relates to Ptpn11^D61G/+ mice. As to the kind of experiment: Growth, facial dysmorphia and splenomegaly after postnatal dasatinib. The note with it: postnatal 0.1 mg/kg/day, NS mice. Type of series: in vivo.
Excerpt: Differences within treatment groups were significant (p<0.001, Two-way ANOVA test) from 3-weeks to 8-weeks old. FIG. 19b is a graph showing body weight measured at P42. FIG. 19c is a graph showing body length measured at P42. FIG. 19d is a graph showing body weight measured at P56. […]. FIG. 19e is a graph showing body length measured at P56.
(n=10˜16 for each group; Two-way ANOVA test).
All data represent mean±SEM. *, p<0.05; ***, p<0.001.
as §1

For series [3], the system named is Ptpn11^D61G/+ mice. Kind of series: Heart weight and histology (Masson's trichrome) after postnatal dasatinib. The note with it: NS mice. The class given is in vivo. As to the method: FIG. 15, comprising FIG. 15a-15j, is a panel of images showing cardiomyopathy and cardiac fibrosis in Ptpn11^D61G/+ mice rescued by dasatinib. […] FIG. 15e is a graph showing relative expression of fibrosis marker gene, Col1a2. […] FIG. 15f is a graph showing relative expression of fibrosis marker gene, Col3a1. FIG. 15g is a graph showing relative expression of cardiac fetal gene, Myh6 (αMHC). FIG. 15h is a graph showing relative expression of cardiac fetal gene, Myh7 (βMHC). FIG. 15i is a graph showing relative expression of cardiac fetal gene, Anf. FIG. 15j is a graph showing relative expression of cardiac fetal gene, Bnp. The genes were measured by quantitative RT-PCR (n=6 for each group). […] (Two-way ANOVA test).

For series [4], the system named is Ptpn11^D61G/+ mice. Kind of series: Heart tissue immunoblot for SERCA2A, Troponin I, Troponin T. The class given is in vivo. To be noted: postnatal dasatinib; NS mice. The text has this:
Representative traces of cardiomyocyte dynamics for calcium transient traces (top) and their corresponding sarcomere leng shortening traces (bottom). FIG. 16b is a graph showing a summary of the data of relative calcium release (Rmag Ca^2+). FIG. 16c is a graph showing the fraction of sarcomere shortening (n=111˜162 cells from 3 mice for each group). FIG. 16d is an image showing heart tissue immunoblotted with anti-SERCA2A, Troponin I (tTnI), Troponin T (tTnT) and Tubulin antibodies. […] FIG. 16e is a graph showing SERCA2A expression. FIG. 16f is a graph showing Troponin I expression. FIG. 16g is a graph showing Troponin T. Expression was statistically assessed after normalization with tubulin (n=6 for each group).
Immunoprecipitation and Immunoblotting—Cells or heart tissue were lysed on ice in lysis buffer (25 mM Tris-HCl, pH 7.4, 136 mM NaCl, 1 mM CaCl2, 1 mM MgCl2, 1% Nonidet P-40, 1 mM Na3VO4, 10 mM NaF, 1 mM benzamidine, 1 mM PMSF, 1 μg/ml pepstatin A, 5 μg/ml aprotinin, and 5 μg/ml leupeptin). Cell or tissue lysates were incubated at 4° C. for 30 min and clarified by centrifugation at 14,000 rpm at 4° C. for 10 min. Protein concentration was determined using the BCA reagent according to the manufacturer's instructions (Pierce). For immunoprecipitations, 500 μg of lysate was incubated with 1 μg of indicated antibodies at 4° C. for overnight. […]
Background: Immunoblotting shows a protein as a band on a membrane.

The subject of series [5] is tumor incidence. To be noted: mice; cited from earlier work.

Consider `Cc1nc(Nc2ncc(C(=O)Nc3c(C)cccc3Cl)s2)cc(N2CCN(CCO)CC2)n1.O` [Dasatinib, N-(2-chloro-6-methylphenyl)-2-[[6-[4-(2-hydroxyethyl)-1-piperazinyl]-2-methyl-4-pyrimidinyl]amino]-5-thiazole carboxamide monohydrate], for which the adverse effects result in series [1] (mouse, in vivo, ip, 0.1 mg/kg) is listed as “no observable adverse effects”. In series [1] (prenatal dasatinib 0.1 mg/kg, number of pups), this compound showed a Dead pups of 4. For the same compound, the embryonic lethality result in series [1] (prenatal treatment at 0.5 and 1.0 mg/kg/per day i.p.) is “embryonic lethality”. Moreover, the “growth (body weight, body length)” value in series [2] is listed as “did not improve”. Further, in series [2] (monohydrate), the facial dismorphism entry was “did not improve” and the splenomegaly result was “did not improve; also recorded: did not rescue”. Further, the “cardiac fibrosis at the histological level” value in series [3] (P56) is “markedly reduced”. The “pathologic cardiac phenotypes (heart weight, dilated cardiomyopathy, myofibrillar disorganization)” value in series [3] (P56, monohydrate) is “profound reversal; also recorded: rescued”. For the same compound, in series [4], the “SERCA2A protein expression in cardiac tissue” value is listed as “completely normalized”; the “TnT and TnI expression levels in heart” value is on record as “returned to those equivalent to vehicle-treated wild type mice”. In series [5], the “dosage effective in preventing tumor incidence” value is recorded as roughly 20 mg/kg.

(Values after patent US10471059B2, “Compositions and methods of using tyrosine kinase inhibitors” (YALE UNIVERSITY, priority 2015, dated 2019).)
